Consider nine compounds from US11446298B2, “Pyrimidine derivatives” (Idorsia Pharmaceuticals Ltd, priority 2017, dated 2022).

By IC50 is commonly meant the point on the concentration scale where inhibition reaches its midpoint.

Common to all, as to assay type: cell-based
Test [1] concerns the target T1, EP2 (Homo sapiens, UniProt P43116).
T1 construct: SF295 glioblastoma cells express high endogenous EP2 and no EP4; host or cells: SF295 glioblastoma cells
Description: hEP2 cAMP Assay (SF295 glioblastoma cells, HTRF cAMP, PGE2 75 nM). The note with it: antagonistic activity, PGE2 75 nM (EC80). Summed up: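 IC50 values derive from duplicate-point curves of percent cAMP relative to DMSO, read by HTRF (665/620 nm) against a cAMP calibrator. Compounds (30 μM to 0.01 nM ranges) were given 45 min at room temperature before 30 min with 75 nM PGE2, in EP2-only SF295 cells with 2 mM IBMX.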
(TR-FRET usually uses a lanthanide donor and a delayed reading to cut background.)

The target in test [2] is T2, PTGER2 (EP2) (Homo sapiens, UniProt P43116).
T2 construct: host or cells: HEK 293 (PathHunter, stably transfected)
Description: hEP2 b-Arrestin Assay (PathHunter HEK 293 PTGER2 b-arrestin cells, PGE2 5 μM). The note with it: antagonistic activity, beta-arrestin assay, HEK 293 PTGER2 cells, PGE2 5 μM (EC80); read-out: hEP2 b-arr IC50. The method in brief: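 PathHunter enzyme-fragment complementation in HEK 293 cells: compounds (10 μM-2 nM or 1 μM-0.2 nM) pre-incubated 15 min at 37 °C, then 5 μM PGE2 (EC80) for 120 min at 37 °C. Chemiluminescence read after 1 h detection; IC50 from duplicate dose-response fits, means of repeats.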

The target in test [3] is T3, EP4 (Homo sapiens, UniProt P35408).
T3 construct: BT549 breast cancer cells, express high endogenous EP4 levels and very low EP2 levels; host or cells: BT549 breast cancer cells
Description: hEP4 cAMP Assay (BT549 breast cancer cells, HTRF cAMP, PGE2 6 nM). The following applies: antagonistic activity, PGE2 6 nM (EC80). Summed up: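 BT549 cells (endogenous EP4, very low EP2) in HBSS/20 mM HEPES/0.2% BSA/2 mM IBMX, pre-incubated 45 min RT with compound, then stimulated 30 min RT with PGE2 6 nM (EC80). cAMP read by HTRF competitive immunoassay (665/620 nm), converted via calibrator to % of DMSO control; IC50 from duplicate dose-response curves.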

In test [4] the target is T4, PTGER4 (EP4) (Homo sapiens, UniProt P35408).
T4 construct: host or cells: HEK 293 (PathHunter, stably transfected)
Description: hEP4 b-Arrestin Assay (PathHunter HEK 293 PTGER4 b-arrestin cells, PGE2 20 nM). The following applies: antagonistic activity, beta-arrestin assay, HEK 293 PTGER4 cells, PGE2 20 nM (EC80); read-out: hEP4 b-arr IC50. The method in brief: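 PathHunter HEK 293 EP4 b-arrestin enzyme-complementation cells preincubated 15 min at 37° C with compound (10 μM-2 nM or 1 μM-0.2 nM), then stimulated 120 min with 20 nM PGE2 (EC80). Chemiluminescence read; IC50 from duplicate % activity vs DMSO, one-site fit, averaged over repeats.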

T3 sequence (P35408 whole entry): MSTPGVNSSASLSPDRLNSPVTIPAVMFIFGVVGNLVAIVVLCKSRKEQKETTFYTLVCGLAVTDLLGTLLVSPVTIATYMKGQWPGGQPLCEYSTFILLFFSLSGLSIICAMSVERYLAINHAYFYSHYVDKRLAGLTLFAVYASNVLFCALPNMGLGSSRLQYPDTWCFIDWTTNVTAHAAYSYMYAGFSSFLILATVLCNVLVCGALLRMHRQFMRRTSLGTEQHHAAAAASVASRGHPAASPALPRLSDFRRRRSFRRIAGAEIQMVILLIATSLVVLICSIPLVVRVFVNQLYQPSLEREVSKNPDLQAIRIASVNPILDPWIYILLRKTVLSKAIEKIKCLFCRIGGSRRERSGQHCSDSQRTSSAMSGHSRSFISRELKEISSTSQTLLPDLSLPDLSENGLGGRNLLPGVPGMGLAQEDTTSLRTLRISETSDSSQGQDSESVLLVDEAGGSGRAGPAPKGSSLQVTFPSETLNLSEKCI
T4 sequence (P35408 whole entry): as above
T2 sequence (P43116 whole entry): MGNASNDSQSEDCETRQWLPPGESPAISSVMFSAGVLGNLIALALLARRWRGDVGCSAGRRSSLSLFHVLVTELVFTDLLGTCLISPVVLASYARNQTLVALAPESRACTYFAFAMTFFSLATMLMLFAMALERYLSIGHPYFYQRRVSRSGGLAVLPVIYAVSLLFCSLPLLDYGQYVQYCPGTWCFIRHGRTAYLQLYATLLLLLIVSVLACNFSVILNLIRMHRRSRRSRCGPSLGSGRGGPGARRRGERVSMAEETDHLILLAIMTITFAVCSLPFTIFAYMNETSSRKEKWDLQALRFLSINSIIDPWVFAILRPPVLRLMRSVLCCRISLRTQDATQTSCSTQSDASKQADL
T1 sequence (P43116 whole entry): as above

For the compound `COc1ccc2ccccc2c1CCNc1cc(-c2cc(OCCN(C)C)c(C(=O)O)s2)ncn1` [Example 157, 3-(2-Dimethylamino-ethoxy)-5-{6-[2-(2-methoxy-naphthalen-1-yl)-ethylamino]-pyrimidin-4-yl}-thiophene-2-carboxylic Acid], the IC50 in test [1] is 143 nM; in test [2], 43 nM; in test [3] it was 1040 nM; in test [4] it was 1910 nM.
The like results for `CCOc1cc(-c2cc(NCCc3ccc(Br)c4ccccc34)ncn2)ccc1C(=O)O` [Example 182, 4-{6-[2-(4-Bromo-naphthalen-1-yl)-ethylamino]-pyrimidin-4-yl}-2-ethoxy-benzoic acid] were, in that order, 209 nM, 142 nM, 182 nM and 193 nM.
Consider `CCOc1cc(-c2cc(NCCc3c(C#N)ccc4ccccc34)ncn2)sc1C(=O)O` [Example 68, 5-{6-[2-(2-Cyano-naphthalen-1-yl)-ethylamino]-pyrimidin-4-yl}-3-ethoxy-thiophene-2-carboxylic acid], for which the IC50 in test [1] was found to be 3 nM; in test [2], 7 nM; in test [3], 22 nM; in test [4], 24 nM.
The matching figures for `CCOc1cc(-c2cc(NCCc3c(OC)ccc4nc(C)ccc34)ncn2)sc1C(=O)O` [Example 13, 3-Ethoxy-5-{6-[2-(6-methoxy-2-methyl-quinolin-5-yl)-ethylamino]-pyrimidin-4-yl}-thiophene-2-carboxylic acid]: 24 nM, 25 nM, 138 nM and 225 nM.
For `CCOc1cc(-c2cc(NCCc3c(OC)ccc4ccccc34)ncn2)sc1CCC(=O)O` [Example 131, 3-(3-Ethoxy-5-{6-[2-(2-methoxy-naphthalen-1-yl)-ethylamino]-pyrimidin-4-yl}-thiophen-2-yl)-propionic acid], the IC50 worked out at 73 nM in test [1], 54 nM in test [2], 157 nM in test [3] and 88 nM in test [4].
For the compound `COc1ccc2ccccc2c1CCNc1cc(-c2ccc(-c3cc(O)no3)cc2)ncn1` [Example 134, 5-(4-{6-[2-(2-Methoxy-naphthalen-1-yl)-ethylamino]-pyrimidin-4-yl}-phenyl)-isoxazol-3-ol], the IC50 in test [1] is 91 nM; in test [2] it was 8 nM; in test [3], 351 nM; in test [4], 280 nM.
The like results for `CCOc1cc(-c2cc(NCCc3c(C)c(C)cc4ccccc34)ncn2)sc1C(=O)O` [Example 12, 5-{6-[2-(2,3-Dimethyl-naphthalen-1-yl)-ethylamino]-pyrimidin-4-yl}-3-ethoxy-thiophene-2-carboxylic acid] were, in that order, 17 nM, 27 nM, 17 nM and 52 nM.
The matching figures for `CCOc1cc(-c2cc(NCCc3cccc4nc(C)sc34)ncn2)sc1C(=O)O` [Example 31, 3-Ethoxy-5-{6-[2-(2-methyl-benzothiazol-7-yl)-ethylamino]-pyrimidin-4-yl}-thiophene-2-carboxylic acid]: 190 nM, 201 nM, 567 nM and 1410 nM.
Regarding `CCOc1cc(-c2cc(NCCc3cccc4cccnc34)ncn2)sc1-c1noc(=O)[nH]1` [Example 140, 3-{3-Ethoxy-5-[6-(2-quinolin-8-yl-ethylamino)-pyrimidin-4-yl]-thiophen-2-yl}-[1,2,4]oxadiazol-5(4H)-one], the IC50 in test [1] amounted to 142 nM; in test [2], 119 nM; in test [3], 17 nM; in test [4], 15 nM.
